Where two headings read alike, the source gives them in different places.
How the values were obtained:
Assay type in all cases: cell-based
M1 muscarinic receptor = molecular target: T1, M1 muscarinic receptor (Homo sapiens, UniProt P11229); experiment: Functional mobilization of intracellular calcium (FLIPR) in CHO cells expressing M1; details: for EC50: CHO cells expressing M1, FLIPR calcium; for Emax: CHO; for M1 Activity: CHO cells expressing M1, FLIPR calcium assay
T1 construct: expressed in transfected cells; host or cells: CHO (M1-CHO)
T1 sequence (P11229 1-460): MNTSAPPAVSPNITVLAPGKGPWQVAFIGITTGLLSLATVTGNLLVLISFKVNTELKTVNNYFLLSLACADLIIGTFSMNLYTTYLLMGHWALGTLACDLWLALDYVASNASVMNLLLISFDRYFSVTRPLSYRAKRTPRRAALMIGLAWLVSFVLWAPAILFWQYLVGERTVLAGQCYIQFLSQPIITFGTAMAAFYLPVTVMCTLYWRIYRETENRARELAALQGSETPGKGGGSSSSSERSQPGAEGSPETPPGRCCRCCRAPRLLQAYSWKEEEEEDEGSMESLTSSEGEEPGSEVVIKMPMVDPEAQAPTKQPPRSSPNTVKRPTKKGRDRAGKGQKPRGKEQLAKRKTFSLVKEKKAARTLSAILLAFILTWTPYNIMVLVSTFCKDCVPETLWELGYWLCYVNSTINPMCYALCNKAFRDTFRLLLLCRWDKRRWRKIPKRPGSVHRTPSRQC
Method in brief: (§1)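 Calcium flux is read on FLIPR over 60 sec at 488/540 nm in muscarinic-receptor CHO lines. Antagonist mode adds carbachol at EC80 after 15 min compound preincubation or with simultaneous co-application. Agonist mode adds compound alone. Cells carry Fluo-3 or Calcium 3 dye in probenecid-containing pH 7.4 buffer, 0.5% DMSO final.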

M3 muscarinic receptor = molecular target: T2, M3 muscarinic receptor (Homo sapiens, UniProt P20309); experiment: Functional mobilization of intracellular calcium (FLIPR) in CHO cells expressing M3; details: for EC50: CHO cells expressing M3, FLIPR calcium; for Emax: CHO; for M3 Activity: CHO cells expressing M3, FLIPR calcium assay
T2 construct: expressed in transfected cells; host or cells: CHO (M3-CHO)
T2 sequence (P20309 whole entry): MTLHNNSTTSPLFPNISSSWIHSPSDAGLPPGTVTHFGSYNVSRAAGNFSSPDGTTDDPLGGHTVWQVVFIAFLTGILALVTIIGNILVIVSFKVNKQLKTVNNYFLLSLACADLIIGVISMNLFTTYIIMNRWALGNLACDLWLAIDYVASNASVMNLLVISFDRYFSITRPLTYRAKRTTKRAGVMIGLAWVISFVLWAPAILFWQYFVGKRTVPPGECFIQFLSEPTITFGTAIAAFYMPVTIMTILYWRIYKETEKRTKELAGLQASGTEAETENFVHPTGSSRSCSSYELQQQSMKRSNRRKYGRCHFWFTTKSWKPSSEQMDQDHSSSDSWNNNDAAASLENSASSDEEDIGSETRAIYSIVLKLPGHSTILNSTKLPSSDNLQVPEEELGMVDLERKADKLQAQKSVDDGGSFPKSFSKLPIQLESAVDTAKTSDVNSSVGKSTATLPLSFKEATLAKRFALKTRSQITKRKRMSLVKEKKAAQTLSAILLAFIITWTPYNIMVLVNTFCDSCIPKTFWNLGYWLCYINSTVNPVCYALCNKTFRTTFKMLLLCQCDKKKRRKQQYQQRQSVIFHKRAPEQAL
Method in brief: as §1

M4 muscarinic receptor = molecular target: T3, M4 muscarinic receptor (Homo sapiens, UniProt P08173); experiment: Functional mobilization of intracellular calcium (FLIPR) in CHO cells expressing M4; details: for EC50: CHO cells expressing M4, FLIPR calcium; for Emax: CHO; for M4 Activity: CHO cells expressing M4, FLIPR calcium assay
T3 construct: expressed in transfected cells; host or cells: CHO (M4-CHO)
T3 sequence (P08173 1-479): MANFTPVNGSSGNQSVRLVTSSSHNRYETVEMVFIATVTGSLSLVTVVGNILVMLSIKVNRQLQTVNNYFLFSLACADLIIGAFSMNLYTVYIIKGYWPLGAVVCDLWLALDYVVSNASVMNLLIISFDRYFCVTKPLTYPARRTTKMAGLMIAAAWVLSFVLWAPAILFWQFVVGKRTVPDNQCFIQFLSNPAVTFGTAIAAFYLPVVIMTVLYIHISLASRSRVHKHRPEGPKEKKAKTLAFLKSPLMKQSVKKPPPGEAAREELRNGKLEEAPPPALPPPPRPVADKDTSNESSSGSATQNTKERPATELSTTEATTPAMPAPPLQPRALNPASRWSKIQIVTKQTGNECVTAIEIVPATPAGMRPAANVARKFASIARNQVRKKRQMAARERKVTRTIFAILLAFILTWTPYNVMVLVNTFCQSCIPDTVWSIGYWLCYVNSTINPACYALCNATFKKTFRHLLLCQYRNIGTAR
Method in brief: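 Read-out: FLIPR fluorescence (ex 488, em 540 nm) over 60 s. Recombinant CHO lines are dye-loaded (Fluo-3 AM or Calcium 3) with 1 mM probenecid. For antagonist mode, compound is pre-incubated 15 min, or co-applied, then carbachol is added at 3× EC80 per subtype.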

M2 muscarinic receptor = molecular target: T4, M2 muscarinic receptor (Homo sapiens, UniProt P08172); experiment: Functional mobilization of intracellular calcium (FLIPR) in CHO cells expressing M2; details: for EC50: CHO cells expressing M2, FLIPR calcium; for Emax: CHO; for M2 Activity: CHO cells expressing M2, FLIPR calcium assay
T4 construct: expressed in transfected cells; host or cells: CHO (M2-CHO)
T4 sequence (P08172 1-466): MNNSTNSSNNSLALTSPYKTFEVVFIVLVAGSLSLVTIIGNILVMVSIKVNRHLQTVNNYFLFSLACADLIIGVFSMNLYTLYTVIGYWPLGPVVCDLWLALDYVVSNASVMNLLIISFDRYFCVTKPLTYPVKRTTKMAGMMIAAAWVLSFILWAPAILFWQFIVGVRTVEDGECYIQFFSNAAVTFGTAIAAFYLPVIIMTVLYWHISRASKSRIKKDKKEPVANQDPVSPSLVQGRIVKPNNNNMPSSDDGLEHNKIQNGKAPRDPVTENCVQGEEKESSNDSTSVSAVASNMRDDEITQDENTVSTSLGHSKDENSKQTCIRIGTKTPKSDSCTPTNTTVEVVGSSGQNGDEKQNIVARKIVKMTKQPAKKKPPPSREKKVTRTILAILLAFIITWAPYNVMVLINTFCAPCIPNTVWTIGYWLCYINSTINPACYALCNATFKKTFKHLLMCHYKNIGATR
Method in brief: as §1

[1] = 100% = maximum response obtained with the Carbachol control, read-out: M1 Efficacy
[2] = 100% = maximum response obtained with the Carbachol control, read-out: M3 Efficacy
[3] = 100% = maximum response obtained with the Carbachol control, read-out: M4 Efficacy
[4] = 100% = maximum response obtained with the Carbachol control, read-out: M2 Efficacy
[5] = 100% efficacy = maximum response obtained with the Carbachol control

Compound	EC50 (M1 muscarinic receptor)	Emax (M1 muscarinic receptor; [1])	EC50 (M3 muscarinic receptor)	Emax (M3 muscarinic receptor; [2])	EC50 (M4 muscarinic receptor)	Emax (M4 muscarinic receptor; [3])	EC50 (M2 muscarinic receptor)	Emax (M2 muscarinic receptor; [4])	M1 Activity (M1 muscarinic receptor)	Emax (M1 muscarinic receptor; [5])	M3 Activity (M3 muscarinic receptor)	Emax (M3 muscarinic receptor; [5])	M4 Activity (M4 muscarinic receptor)	Emax (M4 muscarinic receptor; [5])	M2 Activity (M2 muscarinic receptor)	Emax (M2 muscarinic receptor; [5])
CC(C)(C)CCN1CCC2(CC[C@@H](NC(=O)Cc3cccnc3)c3ccccc32)CC1 [compound 134]	> 5000 nM	< 25%	> 5 µM	< 25%	< 2000 nM	25 to 100%	> 5 µM	< 25%								
CN(C)C(=O)N[C@H]1CC2(CCN(C(=O)OC(C)(C)C)CC2)c2ccccc21 [compound 298]									+ (activity was measured to be greater than 5.0 μM)	< 25%	+ (activity was measured to be greater than 5.0 μM)	< 25%	+ (activity was measured to be greater than 5.0 μM)	< 25%	+ (activity was measured to be greater than 5.0 μM)	< 25%
COCCC(=O)N[C@@H]1CCC2(CCN(CCC(C)(C)C)CC2)c2cc(F)ccc21 [compound 212]									+++ (activity was measured to be less than 2.0 μM)	25 to 100%	+ (activity was measured to be greater than 5.0 μM)	< 25%	+++ (activity was measured to be less than 2.0 μM)	25 to 100%	+ (activity was measured to be greater than 5.0 μM)	< 25%
C[C@H](C(=O)N[C@@H]1CCC2(CCN(CCC(C)(C)C)CC2)c2ccccc21)N1CCCCC1=O [compound 113]	> 5000 nM	< 25%	> 5 µM	< 25%	< 2000 nM	25 to 100%	> 5 µM	< 25%								
CC(C)CCN1CCC2(CC1)C[C@H](NC(=O)C1CC1)c1ccccc12 [compound 247]									+ (activity was measured to be greater than 5.0 μM)	25 to 100%	+ (activity was measured to be greater than 5.0 μM)	< 25%	+ (activity was measured to be greater than 5.0 μM)	< 25%	+ (activity was measured to be greater than 5.0 μM)	< 25%
CCN(C(=O)Cc1cccnc1)[C@H]1CCC2(CCN(CCC(C)(C)C)CC2)c2ccccc21 [compound 136]	2000 to 5000 nM	25 to 100%	> 5 µM	< 25%	< 2000 nM	25 to 100%	2 to 5 µM	< 25%								
CCC(=O)N1CCCCC1C(=O)N[C@@H]1CCC2(CCN(CCC(C)(C)C)CC2)c2ccccc21 (stereo partly shown) [compound 5]	2000 to 5000 nM	< 25%	> 5 µM	< 25%	< 2000 nM	25 to 100%	2 to 5 µM	< 25%								
CC(=O)N[C@H]1CCC2(CCN(C(C)CC(C)(C)C)CC2)c2ccccc21 (stereo partly shown) [compound 204]									+++ (activity was measured to be less than 2.0 μM)	25 to 100%	+ (activity was measured to be greater than 5.0 μM)	< 25%	+++ (activity was measured to be less than 2.0 μM)	25 to 100%	+ (activity was measured to be greater than 5.0 μM)	< 25%
CC(=O)N1CCC[C@H]1C(=O)N[C@@H]1CCC2(CCN(CCC(C)(C)C)CC2)c2ccccc21 [compound 84]	2000 to 5000 nM	25 to 100%	> 5 µM	< 25%	< 2000 nM	25 to 100%	< 2 µM	25 to 100%								
CC(=O)CCC(=O)N[C@H]1CCC2(CCN(CCC(C)(C)C)CC2)c2ccccc21 [compound 18]	< 2000 nM	25 to 100%	> 5 µM	< 25%	< 2000 nM	25 to 100%	< 2 µM	25 to 100%								
CCN(C(=O)Cc1ccncc1)[C@H]1CCC2(CCN(CCC(C)(C)C)CC2)c2ccccc21 [compound 223]									+ (activity was measured to be greater than 5.0 μM)	25 to 100%	+ (activity was measured to be greater than 5.0 μM)	< 25%	+++ (activity was measured to be less than 2.0 μM)	25 to 100%	+ (activity was measured to be greater than 5.0 μM)	< 25%
CC(C)(C)CCN1CCC2(CC[C@@H](NC(=O)Cc3cccnc3)c3ccc(F)cc32)CC1 [compound 65]	< 2000 nM	25 to 100%	> 5 µM	< 25%	< 2000 nM	25 to 100%	2 to 5 µM	< 25%								
CC(C)(C)CCN1CCC2(CC[C@@H](NC(=O)C3CC3)c3ccc(F)cc32)CC1 [compound 214]									+++ (activity was measured to be less than 2.0 μM)	25 to 100%	+ (activity was measured to be greater than 5.0 μM)	< 25%	+++ (activity was measured to be less than 2.0 μM)	25 to 100%	+++ (activity was measured to be less than 2.0 μM)	< 25%
CC(C)(C)CCN1CCC2(CC[C@H](NC(=O)C3CCC(=O)N3)c3ccc(F)cc32)CC1 (stereo partly shown) [compound 103]	< 2000 nM	25 to 100%	> 5 µM	< 25%	< 2000 nM	25 to 100%	< 2 µM	< 25%								
Cn1nccc1C(=O)N[C@H]1CCC2(CCN(CCC(C)(C)C)CC2)c2ccccc21 [compound 193]									+++ (activity was measured to be less than 2.0 μM)	25 to 100%	+ (activity was measured to be greater than 5.0 μM)	< 25%	+++ (activity was measured to be less than 2.0 μM)	25 to 100%	+ (activity was measured to be greater than 5.0 μM)	< 25%
CC(C)CCN1CCC2(CC1)C[C@H](NC(=O)C1CCCC1)c1ccccc12 [compound 299]									+ (activity was measured to be greater than 5.0 μM)	< 25%	+ (activity was measured to be greater than 5.0 μM)	< 25%	+ (activity was measured to be greater than 5.0 μM)	< 25%	+ (activity was measured to be greater than 5.0 μM)	< 25%
CC(=O)N(C)[C@H]1CCC2(CCN(CCC(C)(C)C)CC2)c2ccccc21 [compound 123]	< 2000 nM	25 to 100%	> 5 µM	< 25%	< 2000 nM	25 to 100%	> 5 µM	< 25%								

— patent publication US8003660B2, “Modulators of muscarinic receptors” (Vertex Pharmaceuticals Incorporated, priority 2006, dated 2011)
